PubChem BioAssay (NCI)
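Compound exposure: 48 hours, 5 concentrations, 96-well plates. At the GI50, growth is halved. TGI marks complete inhibition of growth.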

How the values were obtained:
Test in all cases: NCI anticancer screen, dose series, 48 h; in the data active = GI50 below about 0.43 µM; inactive = the rest
NCI-H460 lung = tested on: NCI-H460 lung
K-562 leukemia = tested on: K-562 leukemia
MOLT-4 leukemia = tested on: MOLT-4 leukemia
PC-3 prostate = tested on: PC-3 prostate
HL-60(TB) leukemia = tested on: HL-60(TB) leukemia
786-0 renal = tested on: 786-0 renal
M14 melanoma = tested on: M14 melanoma
HOP-92 NSCLC = tested on: HOP-92 NSCLC
A549 NSCLC = tested on: A549 NSCLC
SN12C renal = tested on: SN12C renal
SNB-75 CNS = tested on: SNB-75 CNS
SF-268 CNS = tested on: SF-268 CNS
NCI-H23 lung = tested on: NCI-H23 lung
UACC-257 melanoma = tested on: UACC-257 melanoma
MDA-N = tested on: MDA-N
EKVX NSCLC = tested on: EKVX NSCLC
SK-MEL-28 melanoma = tested on: SK-MEL-28 melanoma
MCF7 breast = tested on: MCF7 breast
HT29 colon = tested on: HT29 colon
HCT-15 colon = tested on: HCT-15 colon
OVCAR-8 ovarian = tested on: OVCAR-8 ovarian
HCT-116 colon = tested on: HCT-116 colon
CAKI-1 renal = tested on: CAKI-1 renal
MDA-MB-231 breast = tested on: MDA-MB-231 breast
SK-MEL-5 melanoma = tested on: SK-MEL-5 melanoma
SR leukemia = tested on: SR leukemia
COLO 205 colon = tested on: COLO 205 colon
HS 578T breast = tested on: HS 578T breast
DU-145 prostate = tested on: DU-145 prostate
UO-31 renal = tested on: UO-31 renal
SF-295 CNS = tested on: SF-295 CNS
T-47D breast = tested on: T-47D breast
SNB-19 CNS = tested on: SNB-19 CNS
SK-OV-3 ovarian = tested on: SK-OV-3 ovarian
OVCAR-3 ovarian = tested on: OVCAR-3 ovarian
IGROV1 ovarian = tested on: IGROV1 ovarian
ACHN renal = tested on: ACHN renal
UACC-62 melanoma = tested on: UACC-62 melanoma
OVCAR-4 ovarian = tested on: OVCAR-4 ovarian
HCC-2998 colon = tested on: HCC-2998 colon
TK-10 renal = tested on: TK-10 renal
NCI-H522 lung = tested on: NCI-H522 lung
OVCAR-5 ovarian = tested on: OVCAR-5 ovarian
CCRF-CEM leukemia = tested on: CCRF-CEM leukemia
LOX IMVI melanoma = tested on: LOX IMVI melanoma
NCI/ADR-RES ovarian = tested on: NCI/ADR-RES ovarian
KM12 colon = tested on: KM12 colon
MALME-3M melanoma = tested on: MALME-3M melanoma
HOP-62 NSCLC = tested on: HOP-62 NSCLC
U251 CNS = tested on: U251 CNS
RPMI-8226 leukemia = tested on: RPMI-8226 leukemia
SW-620 colon = tested on: SW-620 colon
NCI-H226 lung = tested on: NCI-H226 lung
MDA-MB-435 = tested on: MDA-MB-435
SF-539 CNS = tested on: SF-539 CNS
RXF 393 renal = tested on: RXF 393 renal
SK-MEL-2 melanoma = tested on: SK-MEL-2 melanoma
A498 renal = tested on: A498 renal
BT-549 breast = tested on: BT-549 breast

Cc1cc(=O)oc2cc(OCC(O)COC(C)C)ccc12 (stereo unspecified)
> 100 µM: TGI (NCI-H460 lung) | TGI (K-562 leukemia) | TGI (MOLT-4 leukemia) | TGI (PC-3 prostate) | TGI (HL-60(TB) leukemia) | TGI (786-0 renal) | TGI (M14 melanoma) | TGI (HOP-92 NSCLC) | TGI (A549 NSCLC) | TGI (SN12C renal) | TGI (SNB-75 CNS) | TGI (SF-268 CNS) | TGI (NCI-H23 lung) | TGI (UACC-257 melanoma) | TGI (MDA-N) | TGI (EKVX NSCLC) | TGI (SK-MEL-28 melanoma) | TGI (MCF7 breast) | TGI (HT29 colon) | TGI (HCT-15 colon) | TGI (OVCAR-8 ovarian) | TGI (HCT-116 colon) | TGI (CAKI-1 renal) | TGI (MDA-MB-231 breast) | TGI (SK-MEL-5 melanoma) | TGI (SR leukemia) | TGI (COLO 205 colon) | TGI (HS 578T breast) | TGI (DU-145 prostate) | TGI (UO-31 renal) | TGI (SF-295 CNS) | TGI (T-47D breast) | TGI (SNB-19 CNS) | TGI (SK-OV-3 ovarian) | TGI (OVCAR-3 ovarian) | TGI (IGROV1 ovarian) | TGI (ACHN renal) | TGI (UACC-62 melanoma) | TGI (OVCAR-4 ovarian) | TGI (HCC-2998 colon) | TGI (TK-10 renal) | TGI (NCI-H522 lung) | TGI (OVCAR-5 ovarian) | TGI (CCRF-CEM leukemia) | TGI (LOX IMVI melanoma) | TGI (NCI/ADR-RES ovarian) | TGI (KM12 colon) | TGI (MALME-3M melanoma) | TGI (HOP-62 NSCLC) | TGI (U251 CNS) | TGI (RPMI-8226 leukemia) | TGI (SW-620 colon)

CC(C)(Cl)C(Br)CCC(Br)(CCl)C(Cl)CBr (stereo unspecified)
> 10 µM: TGI (NCI-H460 lung) | TGI (K-562 leukemia) | TGI (MOLT-4 leukemia) | TGI (PC-3 prostate) | TGI (HL-60(TB) leukemia) | TGI (786-0 renal) | TGI (M14 melanoma) | TGI (HOP-92 NSCLC) | TGI (NCI-H226 lung) | TGI (SN12C renal) | TGI (SNB-75 CNS) | TGI (NCI-H23 lung) | TGI (UACC-257 melanoma) | TGI (MDA-N) | TGI (EKVX NSCLC) | TGI (SK-MEL-28 melanoma) | TGI (MCF7 breast) | TGI (HT29 colon) | TGI (HCT-15 colon) | TGI (OVCAR-8 ovarian) | TGI (CAKI-1 renal) | TGI (MDA-MB-435) | TGI (MDA-MB-231 breast) | TGI (SK-MEL-5 melanoma) | TGI (SR leukemia) | TGI (COLO 205 colon) | TGI (SF-539 CNS) | TGI (HS 578T breast) | TGI (DU-145 prostate) | TGI (UO-31 renal) | TGI (SF-295 CNS) | TGI (RXF 393 renal) | TGI (T-47D breast) | TGI (SNB-19 CNS) | TGI (SK-OV-3 ovarian) | TGI (OVCAR-3 ovarian) | TGI (IGROV1 ovarian) | TGI (ACHN renal) | TGI (OVCAR-4 ovarian) | TGI (SK-MEL-2 melanoma) | TGI (HCC-2998 colon) | TGI (TK-10 renal) | TGI (NCI-H522 lung) | TGI (OVCAR-5 ovarian) | TGI (A498 renal) | TGI (CCRF-CEM leukemia) | TGI (LOX IMVI melanoma) | TGI (NCI/ADR-RES ovarian) | TGI (KM12 colon) | TGI (MALME-3M melanoma) | TGI (HOP-62 NSCLC) | TGI (U251 CNS) | TGI (RPMI-8226 leukemia) | TGI (SW-620 colon)

COc1cc2c(c(OC)c1OC)-c1ccc(SC)c(=O)cc1[C@@H](O)CC2
> 100 µM: TGI (NCI-H460 lung) | TGI (K-562 leukemia) | TGI (MOLT-4 leukemia) | TGI (786-0 renal) | TGI (HOP-92 NSCLC) | TGI (A549 NSCLC) | TGI (SN12C renal) | TGI (SNB-75 CNS) | TGI (UACC-257 melanoma) | TGI (SK-MEL-28 melanoma) | TGI (MCF7 breast) | TGI (HCT-116 colon) | TGI (CAKI-1 renal) | TGI (DU-145 prostate) | TGI (UO-31 renal) | TGI (RXF 393 renal) | TGI (T-47D breast) | TGI (ACHN renal) | TGI (UACC-62 melanoma) | TGI (OVCAR-4 ovarian) | TGI (HCC-2998 colon) | TGI (TK-10 renal) | TGI (CCRF-CEM leukemia) | TGI (LOX IMVI melanoma) | TGI (HOP-62 NSCLC) | TGI (RPMI-8226 leukemia) | TGI (SW-620 colon)
0.302 µM: TGI (NCI/ADR-RES ovarian)
active: GI50 (SF-268 CNS) 0.0153 µM | GI50 (SK-MEL-5 melanoma) 0.000311 µM | GI50 (SR leukemia) 0.0667 µM | GI50 (OVCAR-3 ovarian) 0.000322 µM | GI50 (NCI-H522 lung) 0.0116 µM | GI50 (MALME-3M melanoma) 0.028 µM
inactive: GI50 (HL-60(TB) leukemia) 6.13 µM | GI50 (HOP-92 NSCLC) > 100 µM | GI50 (BT-549 breast) 98.4 µM | GI50 (EKVX NSCLC) > 100 µM | GI50 (SK-MEL-28 melanoma) > 100 µM | GI50 (RXF 393 renal) > 100 µM | GI50 (T-47D breast) > 100 µM | GI50 (SK-OV-3 ovarian) > 100 µM | GI50 (OVCAR-4 ovarian) > 100 µM | GI50 (TK-10 renal) > 100 µM
0.000318 µM: TGI (MDA-N)
0.0703 µM: TGI (HT29 colon)
0.0169 µM: TGI (NCI-H226 lung)

CC(Nc1ccc(Cl)c(Cl)c1)c1ccncc1 (stereo unspecified)
61 µM: TGI (A498 renal)
46.2 µM: TGI (U251 CNS)
30.3 µM: TGI (SK-MEL-5 melanoma)
37 µM: TGI (NCI-H522 lung)
84.3 µM: TGI (OVCAR-3 ovarian)
36.5 µM: TGI (HCT-116 colon)
50.7 µM: TGI (IGROV1 ovarian)
89.7 µM: TGI (DU-145 prostate)
56.4 µM: TGI (SF-539 CNS)
44 µM: TGI (NCI-H460 lung)
28.7 µM: TGI (RPMI-8226 leukemia)
45.1 µM: TGI (MDA-MB-231 breast)
54.8 µM: TGI (HOP-92 NSCLC)
49.7 µM: TGI (HOP-62 NSCLC)
60.5 µM: TGI (786-0 renal)
86.3 µM: TGI (BT-549 breast)
75.2 µM: TGI (PC-3 prostate)
> 100 µM: TGI (K-562 leukemia) | TGI (MOLT-4 leukemia) | TGI (A549 NSCLC) | TGI (SN12C renal) | TGI (SF-268 CNS) | TGI (NCI-H23 lung) | TGI (UACC-257 melanoma) | TGI (EKVX NSCLC) | TGI (SK-MEL-28 melanoma) | TGI (MCF7 breast) | TGI (HCT-15 colon) | TGI (MDA-MB-435) | TGI (T-47D breast) | TGI (SNB-19 CNS) | TGI (ACHN renal) | TGI (OVCAR-4 ovarian) | TGI (TK-10 renal) | TGI (CCRF-CEM leukemia) | TGI (NCI/ADR-RES ovarian) | TGI (MALME-3M melanoma)
40 µM: TGI (LOX IMVI melanoma)
97.7 µM: TGI (SNB-75 CNS)
66.6 µM: TGI (MDA-N)
68.2 µM: TGI (M14 melanoma)
29.3 µM: TGI (SK-OV-3 ovarian)
76.2 µM: TGI (OVCAR-8 ovarian)
64.2 µM: TGI (SF-295 CNS)
81.6 µM: TGI (NCI-H226 lung)
54.3 µM: TGI (RXF 393 renal)
31.1 µM: TGI (UO-31 renal)
55.6 µM: TGI (SK-MEL-2 melanoma)
78.5 µM: TGI (SW-620 colon)
72.4 µM: TGI (HT29 colon)
40.1 µM: TGI (KM12 colon)
97.8 µM: TGI (CAKI-1 renal)
31.4 µM: TGI (COLO 205 colon)
